In brackets after ≈: the same amount, converted by molar mass. Several values for one entry are separate records, joined by “and”; a condition that tells them apart may be missing. Identical values can stand only once. Like-named read-outs stand apart in the source and are kept apart here.
Tests used:
[1] = test system: Mycobacterium tuberculosis H37Rv (ATCC 27294); assay: Primary screen, Microplate Alamar Blue Assay (MABA), percent inhibition; type: cell-based; details: Mycobacterium tuberculosis, primary screening at 6.25 μg/ml
Procedure, shortened: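 Single-concentration screen at 6.25 μg/ml (or molar equivalent of the heaviest congener in a series) against H37Rv grown in BACTEC 12B medium. Growth read by Microplate Alamar Blue Assay, reported as percent inhibition.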

[2] = test system: D6 and W2 P. falciparum clones; type: cell-based, Plasmodium falciparum; details: for Resistance Index: IC50 (W2)/IC50 (D6) ratio; for times more active than bis(1,1-dioxy-2-methylcyclohexane): antimalarial activity versus literature tetraoxane
[3] = test system: M. tuberculosis H37Rv; assay: Minimum inhibitory concentration (MIC) in the MABA; type: cell-based, Mycobacterium tuberculosis; details: Mycobacterium tuberculosis, H37RV
Procedure, shortened: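 Run under the NIAID TAACF screening program against M. tuberculosis by fluorescence read-out. MIC taken as the lowest concentration giving 90% reduction in fluorescence relative to controls.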

[4] = test system: Plasmodium falciparum chloroquine-resistant strain W2; assay: microbe, parasite or virus in culture; type: cell-based; details: for Strain W2 IC50: growth inhibition, chloroquine-resistant strain W2, 66 h incubation; for IC50: Plasmodium falciparum, W2, 66 h, read-out: Strain W2 IC50, growth inhibition, chloroquine-resistant strain W2, 66 h incubation
[5] = test system: VERO cells
[6] = in vitro; details: African green monkey, Cytotoxcity (IC50)
[7] = test system: VERO cells; assay: cells; details: Chlorocebus sabaeus, Table 5
[8] = test system: Plasmodium falciparum chloroquine-susceptible strain D6; assay: In vitro antimalarial drug susceptibility assay (radiolabeled hypoxanthine incorporation), strain D6; type: cell-based; details: for Strain D6 IC50: growth inhibition, chloroquine-susceptible strain D6, 66 h incubation; for IC50: Plasmodium falciparum, D6, 66 h, read-out: Strain D6 IC50, growth inhibition, chloroquine-susceptible strain D6, 66 h incubation
[9] = test system: M. avium strains 100, 101, 108, 109, 116; assay: M. avium MIC, Microtiter; type: cell-based, Mycobacterium avium
[10] = test system: lung NCI-H460, breast MCF7, CNS SF-268; assay: 3-cell line one dose primary anticancer assay (NCI); type: cell-based, human; details: growth percentage after 48 hours, at 100 μM
Description: In preliminary tests, four compounds (1B14a, 1C44, 1C45, and 1C46) were chosen by NIH-NCI for in vitro screening. See Drug discovery and development program, National Cancer Institute, Bethesda, (NCI), http://dtp.nci.nih.gov. All tetraoxanes were evaluated in the 3-cell line (lung—NCI-H460, breast—MCF7, CNS-SF-268) one dose primary anticancer assay: growth percentage after 48 hours, at 100 μM concentration of tested compound. Two compounds were eliminated at this step (1B14a and 1C46), while the acid 1C44 and primary amide 1C45 were evaluated against the full panel of 60 human tumor cell lines starting with 10^−4 M concentration of investigated compounds.

[11] = Table 3, H37Rv, read-out: Inhibition (%)
[12] = Table 5, Alamar assay, M. tuberculosis H37Rv, read-out: MIC
[13] = ratio of IC50 in VERO cells to MIC (M. tuberculosis H37Rv)
[14] = Table 3, VERO cell line, 72 hours exposure
[15] = Table 5, Alamar assay, read-out: % Inhib

Row | SMILES | inhibition at 6.25 µg/mL [1, 11] | Resistance Index [2] | MIC ([3]; Table 3, H37Rv, read-out: MIC) | MIC [3, 12] | Strain W2 IC50 [4] | SI (selectivity index) [5, 13] | IC50 [6, 14] | IC50 [7] | Strain D6 IC50 [8] | inhibition at 6.25 µg/mL [1, 15] | IC50 [4] | IC50 [8] | melting point | also measured
1 | CCCNC(=O)CCC(C)[C@H]1CCC2C3C(C[C@H](OC(C)=O)[C@@]21C)[C@@]1(C)CCC2(C[C@H]1C[C@H]3OC(C)=O)OOC1(CCC(C)CC1)OO2 (stereo partly drawn) [20/1C29, N-(n-Propyl)-7α,12α-diacetoxy-5β-cholan-24-amide-3-spiro-6′-(1′,2′,4′,5′-tetraoxacyclohexane)-3′-spiro-1″-((4″R)-methyl)cyclohexane] | 94% | 1.18 | 6.25 µg/mL and 9.25 µM | 6.25 µg/mL (≈ 9.25 µM) | 0.00258 µg/mL | 1.3 | 8.34 µg/mL and 12.3 µM | 8.34 µg/mL (≈ 12.3 µM) | 0.00218 µg/mL |  |  |  |  | 
2 | CC(=O)O[C@H]1CC2C(C3CC[C@H](C(C)CCC(N)=O)[C@]31C)[C@H](OC(C)=O)C[C@@H]1CC3(CC[C@]21C)OOC1(CCCCC1C)OO3 (stereo partly drawn) [13/1C22, 7α,12α-Diacetoxy-5β-cholan-24-amide-3-spiro-6′-(1′,2′,4′,5′-tetraoxacyclohexane)-3′-spiro-1″-(2″-methyl)cyclohexane] |  | 0.64 |  | 0.2 µg/mL (≈ 0.316 µM) |  |  |  |  |  | 100% | 0.00705 µg/mL (≈ 0.0111 µM) | 0.011 µg/mL (≈ 0.0173 µM) |  | times more active than bis(1,1-dioxy-2-methylcyclohexane) [2]: ca. 3.5 times; MIC ([9]; M. avium strain 101, MIC dilution 0.25-32): >32 µg/mL; MIC ([9]; M. avium strain 108, MIC dilution 0.25-32): >32 µg/mL; MIC ([9]; M. avium strain 109, MIC dilution 0.25-32): >32 µg/mL; MIC ([9]; M. avium strain 116, MIC dilution 0.25-32): >32 µg/mL; MIC ([9]; Mycobacterium avium, M. avium strain 100, MIC dilution 0.25-32, read-out: MIC): > 32 µg/mL
3 | COC(=O)CCC(C)[C@H]1CCC2C3C(C[C@H](OC(C)=O)[C@@]21C)[C@@]1(C)CCC2(C[C@H]1C[C@H]3OC(C)=O)OOC1(OO2)C(C)CCCC1C (stereo partly drawn) [8e/1B07, Methyl 7α,12α-diacetoxy-5β-cholan-24-oate-3-spiro-6′-(1′,2′,4′,5′-tetraoxacyclohexane)-3′-spiro-1″-(2″,6″-dimethyl)cyclohexane] |  | 11.45 |  | > 6.25 µg/mL |  |  |  |  |  | 0% | 0.237 µg/mL (≈ 0.357 µM) | 0.0207 µg/mL (≈ 0.0312 µM) | 213 to 215 °C | antimalarial activity in words ([2]; D6 and W2 clones, Table 2): inactive
4 | CO[C@H]1/C=C/O[C@@]2(C)Oc3c(C)c(O)c4c(O)c(c(/C=N/N5CCN(C)CC5)c(O)c4c3C2=O)NC(=O)/C(C)=C\C=C\[C@H](C)[C@H](O)[C@@H](C)[C@@H](O)[C@@H](C)[C@H](OC(C)=O)[C@@H]1C [Rifampin, reference compound] |  |  | 0.12 µg/mL and 0.15 µM |  |  |  |  | > 100 µg/mL |  |  |  |  |  | SI (selectivity index) [5]: > 800; IC50 [6]: 111 µg/mL and 134 µM
5 | COC(=O)CCC(C)[C@H]1CCC2C3C(C[C@H](OC(C)=O)[C@@]21C)[C@@]1(C)CCC2(C[C@H]1C[C@H]3OC(C)=O)OOC1(CCC(c3ccccc3)CC1)OO2 (single isomer, unassigned) [Compound 1B14a, Methyl 7α,12α-diacetoxy-5β-cholan-24-oate-3-spiro-6′-(1′,2′,4′,5′-tetraoxacyclohexane)-3′-spiro-1″-((4″R or S)- and (4″S or R)-phenyl)cyclohexane] | 37% | 0.93 | > 6.25 µg/mL | > 6.25 µg/mL | 0.01172 µg/mL |  |  |  | 0.01256 µg/mL | 37% |  |  |  | outcome of one dose primary anticancer assay [10]: eliminated
6 | CCNC(=O)CCC(C)[C@H]1CCC2C3C(C[C@H](OC(C)=O)[C@@]21C)[C@@]1(C)CCC2(C[C@H]1C[C@H]3OC(C)=O)OOC1(CCC(C)CC1)OO2 (stereo partly drawn) [19/1C28, N-Ethyl-7α,12α-diacetoxy-5β-cholan-24-amide-3-spiro-6′-(1′,2′,4′,5′-tetraoxacyclohexane)-3″-spiro-1″-((4″R)-methyl)cyclohexane] | 98% | 0.68 | 3.13 µg/mL and 4.73 µM | 3.13 µg/mL (≈ 4.73 µM) | 0.0026 µg/mL | 1.7 | 5.37 µg/mL and 8.11 µM | 5.37 µg/mL (≈ 8.11 µM) | 0.00384 µg/mL |  |  |  |  | 
7 | CC(=O)O[C@H]1CC2C(C3CC[C@H](C(C)CCC(N)=O)[C@]31C)[C@H](OC(C)=O)C[C@@H]1CC3(CC[C@]21C)OOC1(CCC(C)CC1)OO3 (stereo partly drawn) [17/1C26, 7α,12α-Diacetoxy-5β-cholan-24-amide-3-spiro-6′-(1′,2′,4′,5′-tetraoxacyclohexane)-3′-spiro-1″-((4″R)-methyl)cyclohexane] | 99% | 0.50 | 3.13 µg/mL and 4.94 µM | 3.13 µg/mL (≈ 4.94 µM) |  | 1.1 | 3.49 µg/mL and 5.51 µM | 3.49 µg/mL (≈ 5.51 µM) |  | 99% |  |  |  | Resistance Index ([2]; listed as 17): 0.50; times more active than parent methyl ester 8g ([2]; antimalarial activity): ca. 9 times; times as active as arteether ([2]; antimalarial activity in vitro): 2.4 times; times more active than artelinic acid ([2]; antimalarial activity in vitro): ca. 6 times; Strain W2 IC50 ([4]; listed as 17): 0.00037 µg/mL; SI (IC50 (Vero)/IC50 (D6 or W2)) ([5]; cytotoxicity in Vero cells versus antimalarial activity): 9 500; Strain D6 IC50 ([8]; listed as 17): 0.00074 µg/mL
8 | CCCNC(=O)CC[C@@H](C)[C@H]1CC[C@H]2[C@@H]3[C@H](OC(C)=O)C[C@@H]4CC(OO)(OO)CC[C@]4(C)[C@H]3C[C@H](OC(C)=O)[C@]12C |  |  |  |  |  |  |  |  |  |  |  |  | 120 to 129 °C | 
9 | CNC(=O)CCC(C)[C@H]1CCC2C3C(C[C@H](OC(C)=O)[C@@]21C)[C@@]1(C)CCC2(C[C@H]1C[C@H]3OC(C)=O)OOC1(CCC(c3ccccc3)CC1)OO2 (single isomer, unassigned) [Compound 1C46, N-Methyl-7α,12α-Diacetoxy-5β-cholan-24-amide-3-spiro-6′-(1′,2′,4′,5′-tetraoxacyclohexane)-3′-spiro-1″-((4″R or S)-phenyl)cyclohexane] |  | 0.79 |  | > 6.25 µg/mL | 0.00696 µg/mL |  |  |  | 0.00883 µg/mL | 71% |  |  |  | inhibition at 6.25 µg/mL ([1]; Table 3, H37Rv): 71%; outcome of one dose primary anticancer assay [10]: eliminated; MIC ([3]; Table 3): 6.25 µg/mL (≈ 8.8 µM)
10 | COC(=O)CCC(C)[C@H]1CCC2C3C(C[C@H](OC(C)=O)[C@@]21C)[C@@]1(C)CCC2(C[C@H]1C[C@H]3OC(C)=O)OOC1(CCCCC1C)OO2 (stereo partly drawn) [8d/1B06, Methyl 7α,12α-Diacetoxy-5β-cholan-24-oate-3-spiro-6′-(1′,2′,4′,5′-tetraoxacyclohexane)-3′-spiro-1″-(2″-methyl)cyclohexane] |  | 0.58 |  | > 6.25 µg/mL |  |  |  |  |  | 29% | 0.0102 µg/mL (≈ 0.0156 µM) | 0.0175 µg/mL (≈ 0.027 µM) | 204 to 207 °C | times more active than bis(1,1-dioxy-2-methylcyclohexane) [2]: about 2 times
